The values below come from US4520112A, “Assay method for organic calcium antagonist drugs and a kit for such an assay” (The Johns Hopkins University, priority 1983, dated 1985).

In one assay the test system is calcium antagonist receptors.
Assay: not given
The note with it: literature reports; cited from earlier work.
Regarding `COc1ccc(CCN(C)CCCC(C#N)(c2ccc(OC)c(OC)c2)C(C)C)cc1OC` (stereo not shown) [verapamil], the “effect on 3H-nitrendipine binding” value is “interact allosterically with the same receptor site and also reduce ^3 H-nitrendipine binding”.

Turning to `COC(=O)C1=C(C)NC(C)=C(C(=O)OC)C1c1ccccc1[N+](=O)[O-]` [nifedipine], the “effect on 3H-nitrendipine binding” value is listed as “compete directly”.

Take `COc1ccc([C@@H]2Sc3ccccc3N(CCN(C)C)C(=O)[C@@H]2OC(C)=O)cc1` [diltiazem]: the “effect on 3H-nitrendipine binding” value is “interact allosterically with the same receptor site and also reduce ^3 H-nitrendipine binding”.

A further assay deals with calcium channel receptor (bovine cerebral cortex membranes). Put plainly: 3H-nitrendipine binding to cerebral cortex membranes (calcium channel receptor). The note with it: drug added to human plasma.
Take `CC(Cc1ccccc1)NCCC(c1ccccc1)c1ccccc1` (stereo not shown) [prenylamine]: the “effect on 3H-nitrendipine binding” value was “inhibition”.

On to `COc1ccc([C@@H]2Sc3ccccc3N(CCN(C)C)C(=O)[C@@H]2OC(C)=O)cc1` [diltiazem], for which the “effect on 3H-nitrendipine binding” value was “reversal of tiapamil induced reduction”.

For the compound `COc1ccc(CCN(C)CCCC2(c3ccc(OC)c(OC)c3)S(=O)(=O)CCCS2(=O)=O)cc1OC` [tiapamil], the “effect on 3H-nitrendipine binding” value is reported as “reduction”.

For the compound `COCCOC(=O)C1=C(C)NC(C)=C(C(=O)OC(C)C)C1c1cccc([N+](=O)[O-])c1` (stereo not shown) [Nimodipine, nimodipine], the “effect on 3H-nitrendipine binding” value was “inhibition”.
